Measured values published in ChEMBL document CHEMBL4665629, “An optimised series of substituted N-phenylpyrrolamides as DNA gyrase B inhibitors” (Eur J Med Chem, 2019).
pIC50: −log10 of the molar value. ≈ marks a conversion by molar mass, not a printed value.

Legend:
[1] = Inhibition of Escherichia coli DNA topoisomerase 4
DNA gyrase [2] = target: T1, DNA gyrase (Escherichia coli, UniProt P0AES4+P0AES6); test: Inhibition of Escherichia coli DNA gyrase (A2B2 tetramer) incubated for 60 mins in presence of ATP by malachite green reagent based spectrophotometric analysis; assay type: protein-complex assay
Enterococcus faecalis [3] = test: Antibacterial activity against Enterococcus faecalis ATCC 29212 assessed as bacterial growth inhibition by CLSI protocol based broth dilution or agar dilution method; assay type: functional
[4] = Cytotoxicity against HUVEC assessed as reduction in cell proliferation at 50 uM after 72 hrs by MTS assay relative to control; assay type: cell-based; conditions: human, HUVEC cells, read-out: Activity
[5] = Cytotoxicity against human HepG2 cells assessed as reduction in cell proliferation at 50 uM after 72 hrs by MTS assay relative to control; assay type: cell-based; conditions: read-out: Activity
Escherichia coli [6] = test: Antibacterial activity against efflux pump d effect ive Escherichia coli JW5503 harbouring tolC mutant assessed as bacterial growth inhibition at 50 uM incubated for 24 hrs by CLSI protocol based broth microdilution assay relative to control; assay type: functional
Escherichia coli [7] = test: Antibacterial activity against outer membrane impaired Escherichia coli JD17464 harboring lpxC mutant assessed as bacterial growth inhibition at 50 uM incubated for 24 hrs by CLSI protocol based broth microdilution assay relative to control; assay type: functional
Pseudomonas aeruginosa = test: Antibacterial activity against Pseudomonas aeruginosa ATCC 27853 assessed as bacterial growth inhibition at 50 uM incubated for 24 hrs by CLSI protocol based broth microdilution assay relative to control; assay type: functional
Staphylococcus aureus [8] = test: Antibacterial activity against Staphylococcus aureus ATCC 29213 assessed as bacterial growth inhibition at 50 uM incubated for 24 hrs by CLSI protocol based broth microdilution assay relative to control; assay type: functional
Klebsiella pneumoniae [9] = test: Antibacterial activity against Klebsiella pneumoniae ATCC 700603 assessed as bacterial growth inhibition at 50 uM incubated for 24 hrs by CLSI protocol based broth microdilution assay relative to control; assay type: functional
Escherichia coli [10] = test: Antibacterial activity against Escherichia coli ATCC 25922 assessed as bacterial growth inhibition at 50 uM incubated for 24 hrs by CLSI protocol based broth microdilution assay relative to control; assay type: functional
Enterococcus faecium [11] = test: Antibacterial activity against Enterococcus faecium ATCC 35667 assessed as bacterial growth inhibition at 50 uM incubated for 24 hrs by CLSI protocol based broth microdilution assay relative to control; assay type: functional
Enterococcus faecalis [12] = test: Antibacterial activity against Enterococcus faecalis ATCC 29212 assessed as bacterial growth inhibition at 50 uM incubated for 24 hrs by CLSI protocol based broth microdilution assay relative to control; assay type: functional
Klebsiella aerogenes [13] = test: Antibacterial activity against Enterobacter aerogenes ATCC 13408 assessed as bacterial growth inhibition at 50 uM incubated for 24 hrs by CLSI protocol based broth microdilution assay relative to control; assay type: functional
Acinetobacter baumannii [14] = test: Antibacterial activity against Acinetobacter baumannii ATCC 19606 assessed as bacterial growth inhibition at 50 uM incubated for 24 hrs by CLSI protocol based broth microdilution assay relative to control; assay type: functional; conditions: ATCC 19606 = CIP 70.34 = JCM 6841
Enterococcus faecium [15] = test: Antibacterial activity against Enterococcus faecium ATCC 35667 assessed as minimum inhibitory concentration required for >=90% inhibition of bacterial growth by CLSI protocol based broth microdilution assay; assay type: functional
Enterococcus faecalis [16] = test: Antibacterial activity against Enterococcus faecalis ATCC 29212 assessed as minimum inhibitory concentration required for >=90% inhibition of bacterial growth by CLSI protocol based broth microdilution assay; assay type: functional
[17] = target: Topoisomerase IV (Staphylococcus aureus) (UniProt P0C1U9+P0C1S7); test: Inhibition of Staphylococcus aureus DNA topoisomerase 4 assessed as residual activity at 1 uM using biotinylated oligonucleotide as substrate incubated for 30 mins in presence of ATP by fluorescence-based microplate reader assay relative to control; assay type: protein-complex assay
[18] = Inhibition of Escherichia coli DNA topoisomerase 4 assessed as residual activity at 1 uM using biotinylated oligonucleotide as substrate incubated for 30 mins in presence of ATP by fluorescence-based microplate reader assay relative to control
[19] = target: DNA gyrase (Staphylococcus aureus) (UniProt P0A0K8+P20831); test: Inhibition of Staphylococcus aureus DNA gyrase assessed as residual activity at 1 uM using biotinylated oligonucleotide as substrate incubated for 30 mins in presence of ATP by fluorescence-based microplate reader assay relative to control; assay type: protein-complex assay
DNA gyrase [20] = target: T1, DNA gyrase; test: Inhibition of Escherichia coli DNA gyrase using biotinylated oligonucleotide as substrate incubated for 30 mins in presence of ATP by fluorescence-based microplate reader assay; assay type: protein-complex assay
Escherichia coli [21] = test: Antibacterial activity against Escherichia coli MG1655 harboring GyrB R136C mutant assessed as minimum inhibitory concentration required for >=90% inhibition of bacterial growth in presence of 50 ug/ml phenylalanine-arginine beta-naphthylamide; assay type: functional
Escherichia coli [22] = test: Antibacterial activity against Escherichia coli MG1655 harboring […] mutant assessed as minimum inhibitory concentration required for >=90% inhibition of bacterial growth in presence of 50 ug/ml phenylalanine-arginine beta-naphthylamide; assay type: functional
Escherichia coli [23] = test: Antibacterial activity against Escherichia coli MG1655 harboring […]/D87N mutant assessed as minimum inhibitory concentration required for >=90% inhibition of bacterial growth in presence of 50 ug/ml phenylalanine-arginine beta-naphthylamide; assay type: functional
Escherichia coli [24] = test: Antibacterial activity against Escherichia coli MG1655 harboring […]/D87N and ParC S80I mutants assessed as minimum inhibitory concentration required for >=90% inhibition of bacterial growth in presence of 50 ug/ml phenylalanine-arginine beta-naphthylamide; assay type: functional
Escherichia coli [25] = test: Antibacterial activity against Escherichia coli MG1655 harboring […]/D87N and ParC S80I/E84G mutants assessed as minimum inhibitory concentration required for >=90% inhibition of bacterial growth in presence of 50 ug/ml phenylalanine-arginine beta-naphthylamide; assay type: functional
Klebsiella pneumoniae [26] = test: microbe, parasite or virus in culture; conditions: 700603
Klebsiella aerogenes [27] = test: microbe, parasite or virus in culture; conditions: ATCC 13408
Acinetobacter baumannii [28] = test: microbe, parasite or virus in culture; conditions: ATCC 19606 = CIP 70.34 = JCM 6841
[29] = Inhibition of Escherichia coli DNA GyraseB incubated for 10 mins followed by ATP substrate addition by coupled spectrophotometric analysis
Escherichia coli [30] = test: Antibacterial activity against Escherichia coli assessed as bacterial growth inhibition incubated for 18 to 24 hrs by alamar blue assay; assay type: functional; conditions: time hrs 18-24
Staphylococcus aureus [31] = test: Antibacterial activity against Staphylococcus aureus assessed as bacterial growth inhibition incubated for 18 to 24 hrs by alamar blue assay; assay type: functional; conditions: time hrs 18-24
Escherichia coli [32] = test: Antibacterial activity against efflux pump d effect ive Escherichia coli JW5503 harbouring tolC mutant assessed as minimum inhibitory concentration required for >=90% inhibition of bacterial growth by CLSI protocol based broth microdilution assay; assay type: functional
Staphylococcus aureus [33] = test: Antibacterial activity against Staphylococcus aureus ATCC 29213 assessed as minimum inhibitory concentration required for >=90% inhibition of bacterial growth by CLSI protocol based broth microdilution assay; assay type: functional

Chain of DNA gyrase (Staphylococcus aureus) (P0A0K8 2-644 limits assumed): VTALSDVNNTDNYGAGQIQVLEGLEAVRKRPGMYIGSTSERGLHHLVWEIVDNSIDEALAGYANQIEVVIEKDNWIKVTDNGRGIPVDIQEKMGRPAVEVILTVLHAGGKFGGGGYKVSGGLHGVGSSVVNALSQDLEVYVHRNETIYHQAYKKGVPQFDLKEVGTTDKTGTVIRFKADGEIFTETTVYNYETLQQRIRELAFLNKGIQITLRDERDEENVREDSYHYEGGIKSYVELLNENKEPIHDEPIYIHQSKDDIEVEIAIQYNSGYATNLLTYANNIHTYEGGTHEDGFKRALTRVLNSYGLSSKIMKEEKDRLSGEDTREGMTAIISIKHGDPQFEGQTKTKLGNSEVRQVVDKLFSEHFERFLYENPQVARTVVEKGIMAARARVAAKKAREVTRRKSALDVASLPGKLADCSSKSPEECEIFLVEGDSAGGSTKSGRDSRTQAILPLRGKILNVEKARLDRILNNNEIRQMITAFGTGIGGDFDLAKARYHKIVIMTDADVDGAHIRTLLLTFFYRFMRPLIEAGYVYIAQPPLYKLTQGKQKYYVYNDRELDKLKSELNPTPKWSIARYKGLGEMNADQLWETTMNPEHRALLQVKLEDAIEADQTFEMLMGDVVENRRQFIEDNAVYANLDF
Chain of DNA gyrase (Staphylococcus aureus) (P20831 whole entry partner): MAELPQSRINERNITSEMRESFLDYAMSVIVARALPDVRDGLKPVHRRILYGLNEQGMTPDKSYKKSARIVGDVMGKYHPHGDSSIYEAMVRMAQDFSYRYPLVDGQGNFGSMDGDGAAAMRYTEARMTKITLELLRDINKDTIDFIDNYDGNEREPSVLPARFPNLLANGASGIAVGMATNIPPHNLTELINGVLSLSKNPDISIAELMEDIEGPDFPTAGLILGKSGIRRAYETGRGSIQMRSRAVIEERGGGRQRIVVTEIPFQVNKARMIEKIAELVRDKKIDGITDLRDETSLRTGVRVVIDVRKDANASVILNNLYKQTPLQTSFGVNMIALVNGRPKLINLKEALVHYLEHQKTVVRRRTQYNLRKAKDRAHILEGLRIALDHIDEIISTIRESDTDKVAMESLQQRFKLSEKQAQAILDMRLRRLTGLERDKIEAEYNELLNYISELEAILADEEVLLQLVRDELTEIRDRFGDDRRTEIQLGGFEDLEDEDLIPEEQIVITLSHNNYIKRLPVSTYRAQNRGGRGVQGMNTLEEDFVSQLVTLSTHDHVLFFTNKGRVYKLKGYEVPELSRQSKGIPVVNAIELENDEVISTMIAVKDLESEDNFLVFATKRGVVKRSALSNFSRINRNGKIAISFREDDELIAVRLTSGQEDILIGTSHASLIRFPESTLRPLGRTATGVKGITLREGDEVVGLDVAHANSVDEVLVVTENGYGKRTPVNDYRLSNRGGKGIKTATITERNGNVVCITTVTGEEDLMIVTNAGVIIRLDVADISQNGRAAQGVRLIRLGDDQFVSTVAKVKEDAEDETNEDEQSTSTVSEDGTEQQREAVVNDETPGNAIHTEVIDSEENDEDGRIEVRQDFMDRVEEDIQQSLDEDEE

Row | SMILES | inhibition at 50 µM (Escherichia coli [6]) | inhibition at 50 µM (Escherichia coli [7]) | inhibition at 50 µM (Pseudomonas aeruginosa) | inhibition at 50 µM (Staphylococcus aureus [8]) | inhibition at 50 µM (Klebsiella pneumoniae [9]) | inhibition at 50 µM (Escherichia coli [10]) | inhibition at 50 µM (Enterococcus faecium [11]) | inhibition at 50 µM (Enterococcus faecalis [12]) | inhibition at 50 µM (Klebsiella aerogenes [13]) | inhibition at 50 µM (Acinetobacter baumannii [14]) | MIC (Enterococcus faecalis [16]) | Activity [17] | Activity [18] | Activity [19] | pIC50 (DNA gyrase [20]) | further results
1 | CCNC(=O)Nc1nc2cc(-c3cnc(N4CCC(C)(C(=O)O)CC4)nc3)cc(-c3ccccn3)c2s1 | – | – | – | – | – | – | – | – | – | – | – | – | – | – | – | pIC50 [1]: 7.34; pIC50 (DNA gyrase [2]): 8.39; MIC (Enterococcus faecalis [3]): 0.03 µg/mL (≈ 0.058 µM)
2 | Cc1[nH]c(C(=O)Nc2ccc(C(=O)N[C@H](C)c3n[nH]c(=S)o3)cc2OC(C)C)c(Cl)c1Cl | 40% | 1% | 1% | 7% | 5% | 21% | 79% | 101% | 10% | 6% | 6.25 µM (≈ 3.11 µg/mL) | 90% | 92% | 59% | 6.72 | inhibition at 72 h, 50 µM [4]: 85%; inhibition at 72 h, 50 µM [5]: 80%; MIC (Enterococcus faecium [15]): > 125 µM
3 | O=C(O)c1cn(C2CC2)c2cc(N3CCNCC3)c(F)cc2c1=O [CIPROFLOXACIN] | – | – | – | – | – | – | – | – | – | – | – | – | – | – | – | MIC (Escherichia coli [21]): 0.01 µM; MIC (Escherichia coli [22]): 0.01 µM; MIC (Escherichia coli [23]): 0.19 µM; MIC (Escherichia coli [24]): 8 µM; MIC (Escherichia coli [25]): > 32 µM; MIC (Klebsiella pneumoniae [26]): 0.05 µM (≈ 0.0166 µg/mL); MIC (Klebsiella aerogenes [27]): 0.113 µM (≈ 0.0374 µg/mL); MIC (Acinetobacter baumannii [28]): 3.62 µM (≈ 1.2 µg/mL)
4 | CNc1cc(F)cc2c1[nH]c1nc(Oc3cnc(C)nc3)nc(N3C[C@@H]4[C@H](N)C[C@]4(C)C3)c12 | – | – | – | – | – | – | – | – | – | – | – | – | – | – | – | pIC50 [29]: 9.52; MIC (Escherichia coli [30]): 0.06 µg/mL (≈ 0.134 µM); MIC (Staphylococcus aureus [31]): 0.002 µg/mL (≈ 0.00446 µM)
5 | Cc1[nH]c(C(=O)Nc2ccc(-n3nn[nH]c3=O)cc2)c(Cl)c1Cl | 100% | -1% | -3% | 99% | -2% | 3% | 53% | 99% | -2% | 1% | 12.5 µM (≈ 4.41 µg/mL) | 85% | 94% | 47% | 7.11 | MIC (Escherichia coli [32]): 3.13 µM (≈ 1.11 µg/mL); MIC (Staphylococcus aureus [33]): 50 µM (≈ 17.7 µg/mL)
